From ChEMBL document CHEMBL3217753, “Discovery of selective 2,4-diaminopyrimidine-based photoaffinity probes for glyoxalase I” (Medchemcomm, 2014) come the findings set out here.

The target of test [1] is T1, Lactoylglutathione lyase (Homo sapiens, UniProt Q04760). As to the kind of experiment: Competitive binding affinity to GLO-1 in HEK293T cell lysate at 50 uM after overnight incubation followed by UV-irradiation for 1 hr by pull-down assay in presence of N-(4-(4-(5-fluoro-4-(2-(methylsulfonamido)phenylamino)pyrimidin-2-ylamino)benzoyl)phenyl)-5-((3aS,4S,6aR)-2-oxohexahydro-1H-thieno[3,4-d]imidazol-4-yl)pentanamide. The format is cell-based. The following applies: HEK-293T.
Target sequence in this assay (Q04760 2-184 limits assumed): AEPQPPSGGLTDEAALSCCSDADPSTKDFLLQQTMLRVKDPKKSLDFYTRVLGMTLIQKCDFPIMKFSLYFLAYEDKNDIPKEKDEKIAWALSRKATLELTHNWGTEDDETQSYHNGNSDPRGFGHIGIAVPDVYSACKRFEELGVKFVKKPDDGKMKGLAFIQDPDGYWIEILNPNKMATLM

Test [2] deals with T1, Lactoylglutathione lyase. Briefly: Competitive binding affinity to GLO-1 in HEK293T cell lysate at 50 uM after overnight incubation followed by UV-irradiation for 1 hr by Western blotting analysis in presence of N-(4-(4-(5-fluoro-4-(2-(methylsulfonamido)phenylamino)pyrimidin-2-ylamino)benzoyl)phenyl)-5-((3aS,4S,6aR)-2-oxohexahydro-1H-thieno[3,4-d]imidazol-4-yl)pentanamide. The format is cell-based. The following applies: HEK-293T. For orientation: Immunoblotting shows a protein as a band on a membrane.
Target sequence in this assay (Q04760 2-184 limits assumed): as above

The target of test [3] is T1, Lactoylglutathione lyase. As to the kind of experiment: Competitive binding affinity to human recombinant GLO-1 at 50 uM in presence of N-(4-(4-(5-fluoro-4-(2-(methylsulfonamido)phenylamino)pyrimidin-2-ylamino)benzoyl)phenyl)-5-((3aS,4S,6aR)-2-oxohexahydro-1H-thieno[3,4-d]imidazol-4-yl)pentanamide.
Target sequence in this assay (Q04760 2-184 limits assumed): as above
Test [4] addresses T1, Lactoylglutathione lyase. Briefly: Binding affinity to GLO-1 in live HEK293T cells by pull-down assay. The format is cell-based. Particulars: HEK-293T.
Target sequence in this assay (Q04760 2-184 limits assumed): as above
The test system of test [5] is HeLa. Briefly: Ratio of GI50 for human HeLa cells in presence of 5 mM glucose to GI50 for human HeLa cells in presence of 25 mM glucose. It is filed as functional.
Test [6] has as its system A549. Briefly: Growth inhibition of human A549 cells after 48 hrs by CellTiter-Glo assay in presence of 25 mM glucose. It is filed as functional. The following applies: A549, 48 h. (In general: ATP-based viability assays read luminescence as a measure of living cells.)
Test [7] has as its system A549. As to the kind of experiment: Growth inhibition of human A549 cells after 48 hrs by CellTiter-Glo assay in presence of 5 mM glucose. The format is functional. Particulars: A549, 48 h.
The subject of test [8] is HeLa. As to the kind of experiment: Growth inhibition of human HeLa cells after 48 hrs by CellTiter-Glo assay in presence of 5 mM glucose. The format is functional.
Test [9] addresses T1, Lactoylglutathione lyase. As to the kind of experiment: Inhibition of recombinant GLO-1 (unknown origin) assessed as S-D-lactoylglutathione formation preincubated for 1 hr followed by methylglyoxal and GSH addition measured after 9 mins by spectrophotometric analysis.
Target sequence in this assay (Q04760 whole entry): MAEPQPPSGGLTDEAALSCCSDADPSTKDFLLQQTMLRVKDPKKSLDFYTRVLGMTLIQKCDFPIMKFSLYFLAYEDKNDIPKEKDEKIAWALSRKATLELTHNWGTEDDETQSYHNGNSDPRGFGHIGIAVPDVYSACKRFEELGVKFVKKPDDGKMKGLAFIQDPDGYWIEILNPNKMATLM
Test [10] concerns HeLa. As to the kind of experiment: Growth inhibition of human HeLa cells after 48 hrs by CellTiter-Glo assay in presence of 25 mM glucose. The format is functional.
Test [11] has as its system NCI-H522. Briefly: Growth inhibition of human NCI-H522 cells after 48 hrs by CellTiter-Glo assay in presence of 25 mM glucose. The format is functional. The following applies: NCI-H522, 48 h.
Test [12] concerns NCI-H522. As to the kind of experiment: Growth inhibition of human NCI-H522 cells after 48 hrs by CellTiter-Glo assay in presence of 5 mM glucose. Particulars: NCI-H522, 48 h. It is filed as functional.
In test [13] the target is T1, Lactoylglutathione lyase. As to the kind of experiment: Inhibition of GLO-1 in human HeLa cells under high glucose condition assessed as increase in methylglyoxal level at 5 uM after 24 hrs by spectrophotometric analysis. It is filed as cell-based.
Target sequence in this assay (Q04760 2-184 limits assumed): as the sequence (Q04760 2-184 limits assumed) above
Test [14] has as its target T1, Lactoylglutathione lyase. As to the kind of experiment: Competitive binding affinity to monomeric form of GLO-1 in HEK293T cells at 20 uM incubated for 6 hrs followed by UV-irradiation for 1 hr by fluorescence assay in presence of N-(4-(4-(5-fluoro-4-(2-(methylsulfonamido)phenylamino)pyrimidin-2-ylamino)benzoyl)phenyl)hex-5-ynamide. The format is cell-based. The following applies: HEK-293T.
Target sequence in this assay (Q04760 2-184 limits assumed): as above

The subject of test [15] is HeLa. Briefly: Induction of apoptosis in human HeLa cells under high glucose condition assessed as nuclear fragmentation at 5 uM after 24 hrs by DAPI staining-based fluorescence microscopic analysis. It is filed as functional, cell-based.
In test [16] the target is T1, Lactoylglutathione lyase. Briefly: Competitive binding affinity to dimeric form of GLO-1 in HEK293T cells at 20 uM incubated for 6 hrs followed by UV-irradiation for 1 hr by fluorescence assay in presence of N-(4-(4-(5-fluoro-4-(2-(methylsulfonamido)phenylamino)pyrimidin-2-ylamino)benzoyl)phenyl)hex-5-ynamide. Particulars: HEK-293T. The format is cell-based.
For test [17], the target named is T1, Lactoylglutathione lyase. As to the kind of experiment: Competitive binding affinity to dimeric form of GLO-1 in HEK293T cell lysate at 20 uM after overnight incubation followed by UV-irradiation for 1 hr by fluorescence assay in presence of N-(4-(4-(5-fluoro-4-(2-(methylsulfonamido)phenylamino)pyrimidin-2-ylamino)benzoyl)phenyl)hex-5-ynamide. The format is cell-based. The following applies: HEK-293T.

For test [18], the target named is T1, Lactoylglutathione lyase. Briefly: Competitive binding affinity to GLO-1 in human HeLa cells at 100 uM incubated for 6 hrs followed by UV-irradiation for 1 hr by fluorescence microscopic analysis in presence of N-(4-(4-(5-fluoro-4-(2-(methylsulfonamido)phenylamino)pyrimidin-2-ylamino)benzoyl)phenyl)hex-5-ynamide. It is filed as cell-based.
The target of test [19] is T1, Lactoylglutathione lyase. Briefly: Competitive binding affinity to monomeric form of GLO-1 in HEK293T cell lysate at 20 uM after overnight incubation followed by UV-irradiation for 1 hr by fluorescence assay in presence of N-(4-(4-(5-fluoro-4-(2-(methylsulfonamido)phenylamino)pyrimidin-2-ylamino)benzoyl)phenyl)hex-5-ynamide. The format is cell-based. Particulars: HEK-293T.

Test [20] deals with HeLa. As to the kind of experiment: Induction of apoptosis in human HeLa cells under high glucose condition assessed as caspase-3 degradation at 1 to 50 uM after 24 hrs by Western blotting analysis. It is filed as functional, cell-based.

Activity calls are given as the source filed them. The rule behind the calls is not given here.

For the compound `CS(=O)(=O)Nc1ccccc1Nc1nc(Nc2ccc(C(=O)c3ccc(NC(=O)CCCC[C@@H]4SC[C@@H]5NC(=O)N[C@@H]54)cc3)cc2)ncc1F`, the result at Lactoylglutathione lyase [1], on Lactoylglutathione lyase [2] and at Lactoylglutathione lyase [3] was Active. Also, the result at Lactoylglutathione lyase [4] was inactive.

By GI50 is commonly meant the concentration at which growth is held to half of that of the control. By IC50 is commonly meant the midpoint of a concentration-inhibition curve. Turning to `CS(=O)(=O)Nc1ccccc1Nc1nc(Nc2ccc(Cl)cc2)ncc1F`, the “Ratio IC50” value with HeLa [5] turned out to be 2.6. Moreover, the GI50 in the test on A549 [6] is more than 50 µM; in the test on A549 [7] it was more than 50 µM; in the test on HeLa [8] it was 61 µM; in the test on HeLa [10] it was 23.2 µM; in the test with NCI-H522 [11], 12.2 µM; in the test with NCI-H522 [12] it was 25 µM. For the same compound, on Lactoylglutathione lyase [9], the IC50 was found to be 0.0539 µM.

For `CS(=O)(=O)Nc1ccccc1Nc1nc(Nc2ccc(Oc3ccccc3)cc2)ncc1F`, the “Ratio IC50” value in the test with HeLa [5] is on record as 2.6. Further, the GI50 was 26.9 µM with A549 [6]; 37.4 µM with A549 [7]; 14 µM with HeLa [8]; 7.3 µM in the test with HeLa [10]; 7.3 µM with NCI-H522 [11]; 8.3 µM with NCI-H522 [12]. The IC50 on Lactoylglutathione lyase [9] was 0.0458 µM.

On to `C#CCCCC(=O)Nc1ccc(C(=O)c2ccc(Nc3ncc(F)c(Nc4ccccc4NS(C)(=O)=O)n3)cc2)cc1`, for which the concentration for 50% growth inhibition (GI50) in the test on A549 [6] came out at 13.3 µM; in the test on A549 [7], 15.5 µM; in the test on HeLa [8] it was 5.7 µM; in the test on HeLa [10], 4.6 µM; with NCI-H522 [11] it was 2.9 µM; in the test on NCI-H522 [12], 2.7 µM. In addition, on Lactoylglutathione lyase [9], the IC50 turned out to be 0.0264 µM. Besides, on Lactoylglutathione lyase [13], the inhibition result was “Active”. For the same compound, the result at Lactoylglutathione lyase [14], in the test on HeLa [15], at Lactoylglutathione lyase [16], on Lactoylglutathione lyase [17], at Lactoylglutathione lyase [18] and at Lactoylglutathione lyase [19] was Active. Further, the result with HeLa [20] was Active.

As to `CS(=O)(=O)Nc1ccccc1Nc1nc(Nc2ccc(C(=O)OCc3ccccc3)cc2)ncc1F`, the “Ratio IC50” value in the test on HeLa [5] is reported as 2.6. Also, the GI50 is more than 50 µM with A549 [6]; more than 50 µM in the test with A549 [7]; 61.9 µM in the test on HeLa [8]; 37 µM in the test on HeLa [10]; 16.5 µM with NCI-H522 [11]; 40.2 µM in the test with NCI-H522 [12]. Moreover, the IC50 on Lactoylglutathione lyase [9] amounted to 0.0513 µM.
